{
  "source": "patent US11046640B2",
  "about": "“Water-soluble L-DOPA esters” (BERLIREM GMBH, priority 2015, dated 2021)",
  "key": {"[1]": {"target": "T1, carboxylesterase 1 (isoform c, human, recombinant) (Homo sapiens, UniProt P23141)", "T1 construct": "purchased Sigma-Aldrich, Munich, Germany", "T1 sequence (P23141 18-566 isoform P23141-3 limits assumed)": "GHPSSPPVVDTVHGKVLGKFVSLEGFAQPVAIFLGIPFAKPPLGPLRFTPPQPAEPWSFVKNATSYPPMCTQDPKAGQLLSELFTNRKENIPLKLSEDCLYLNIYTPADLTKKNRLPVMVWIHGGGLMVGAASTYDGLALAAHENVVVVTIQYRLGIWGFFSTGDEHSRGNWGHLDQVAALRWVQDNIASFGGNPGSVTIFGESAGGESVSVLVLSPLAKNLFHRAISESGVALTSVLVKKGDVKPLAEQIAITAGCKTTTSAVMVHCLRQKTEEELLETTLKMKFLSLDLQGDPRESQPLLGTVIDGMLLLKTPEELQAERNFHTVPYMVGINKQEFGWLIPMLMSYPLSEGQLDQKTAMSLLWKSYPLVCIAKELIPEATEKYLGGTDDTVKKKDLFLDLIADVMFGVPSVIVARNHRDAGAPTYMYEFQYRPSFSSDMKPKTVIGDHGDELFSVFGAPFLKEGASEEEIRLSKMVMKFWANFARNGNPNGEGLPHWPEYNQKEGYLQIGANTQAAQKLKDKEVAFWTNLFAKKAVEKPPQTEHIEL", "assay": "Enzymatic ester cleavage using isolated carboxylesterase", "type": "in vitro ADME", "protocol": "Enzymatic Ester Cleavage Using Isolated Carboxylesterase\nAfterwards 5 μl carboxylestaerase 1 (isoform c, human, recombinant (Sigma-Aldrich, Munich, Germany)) with activity 1000 units/mg protein (concentration: 5 mg/ml) was added. The mixture was incubated for 60 and 180 min at 37° C."}, "[2]": {"assay": "Hydrolytic stability at selected pH values (TLC)", "type": "physicochemical", "protocol": "Each 20 mg of lyophilized L-DOPA glycerol ester hydrochloride as well as L-DOPA ethyl ester hydrochloride were dissolved in 250 μl of buffer solution which was de-gassed for 5 min under argon.\nThe ester solutions were stored at 32° C."}, "Solubility in water": {"assay": "Solubility in water", "type": "physicochemical", "details": "for solubility in water: hydrochloride salt; for Aqueous solubility: water", "protocol": "40 mg of lyophilized L-DOPA glycerol ester hydrochloride was dissolved in 20 μl of water resulting in a viscous liquid. The aqueous solubility of L-DOPA glycerol ester hydrochloride is ≥2 g/ml."}, "[3]": {"details": "cited from earlier work"}},
  "data": [
    {"compound": "CCOC(=O)[C@@H](N)Cc1ccc(O)c(O)c1.Cl", "note": "[Ethyl-Dopa•HCl, L-DOPA ethyl ester hydrochloride]", "values": [
      {"measurement": "Time to complete hydrolysis (min) (with carboxylesterase)", "setting": "[1]", "result": 60, "unit": "min"},
      {"measurement": "Stability (days at pH 7.4, Soerensen buffer)", "setting": "[2]", "result": 2, "unit": "days"},
      {"measurement": "solubility in water", "setting": "Solubility in water", "result": "up to 400 mg/ml"},
      {"measurement": "Aqueous solubility", "setting": "Solubility in water", "result": 400, "unit": "mg/mL"}
    ]},
    {"compound": "Cl.N[C@@H](Cc1ccc(O)c(O)c1)C(=O)OCC(O)CO", "note": "(stereo partly drawn) [Gly-Dopa•HCl, L-DOPA glycerol ester hydrochloride]", "values": [
      {"measurement": "Time to complete hydrolysis (min) (with carboxylesterase)", "setting": "[1]", "result": ">60", "unit": "min"},
      {"measurement": "ester remaining", "setting": "[1]; carboxylesterase 1, 37° C., after 180 min", "result": "only traces"},
      {"measurement": "hydrolytic stability", "setting": "[2]; all pH values (1, 4.5, 7.4, 8.5), 32° C., over 14 days", "result": "stable"},
      {"measurement": "Stability (days at pH 7.4, Soerensen buffer)", "setting": "[2]", "result": 14, "unit": "days"},
      {"measurement": "Aqueous solubility", "setting": "Solubility in water; hydrochloride", "result": 2000, "unit": "mg/mL"},
      {"measurement": "Aqueous solubility", "setting": "Solubility in water; listed as L-DOPA glycerol ester hydrochloride, hydrochloride", "result": "≥ 2000", "unit": "mg/mL"}
    ]},
    {"compound": "CCOC(=O)[C@@H](N)Cc1ccc(O)c(O)c1", "note": "[L-DOPA ethyl ester]", "values": [
      {"measurement": "solubility", "setting": "[3]; at pH 8.2, free base, US 6,696,600 B2", "result": 52, "unit": "mg/mL"},
      {"measurement": "ester cleavage", "setting": "[1]; carboxylesterase 1, 37° C., after 60 min", "result": "complete"},
      {"measurement": "time within which the ester is cleaved", "setting": "[2]; pH 7.4, 32° C.", "result": "≤ 2", "unit": "days"},
      {"measurement": "time within which the ester is cleaved", "setting": "[2]; pH 8.5, 32° C.", "result": "≤ 2", "unit": "days"},
      {"measurement": "hydrolytic stability", "setting": "[2]; pH=1, 32° C., over measured time period", "result": "stable"},
      {"measurement": "time within which the ester is cleaved", "setting": "[2]; pH=4.5, 32° C.", "result": "≤ 14", "unit": "days"},
      {"measurement": "solubility in water", "setting": "Solubility in water", "result": 400, "unit": "mg/mL"}
    ]},
    {"compound": "N[C@@H](Cc1ccc(O)c(O)c1)C(=O)O", "note": "[L-DOPA, L-3,4-Dihydroxyphenylalanin]", "values": [
      {"measurement": "water solubility", "setting": "[3]; reported, Fernandez & Odin 2011", "result": 20, "unit": "mg/mL"}
    ]}
  ]
}
